BindingDB's records for PubMed 11356907 (Institut De Recherches Servier, 2001)

Key:
D(2) dopamine receptor [1] = biological target: D(2) dopamine receptor (Homo sapiens, UniProt P14416)
[2] = biological target: T1, Alpha-1D adrenergic receptor (Homo sapiens, UniProt P25100)
T1 sequence (P25100 whole entry): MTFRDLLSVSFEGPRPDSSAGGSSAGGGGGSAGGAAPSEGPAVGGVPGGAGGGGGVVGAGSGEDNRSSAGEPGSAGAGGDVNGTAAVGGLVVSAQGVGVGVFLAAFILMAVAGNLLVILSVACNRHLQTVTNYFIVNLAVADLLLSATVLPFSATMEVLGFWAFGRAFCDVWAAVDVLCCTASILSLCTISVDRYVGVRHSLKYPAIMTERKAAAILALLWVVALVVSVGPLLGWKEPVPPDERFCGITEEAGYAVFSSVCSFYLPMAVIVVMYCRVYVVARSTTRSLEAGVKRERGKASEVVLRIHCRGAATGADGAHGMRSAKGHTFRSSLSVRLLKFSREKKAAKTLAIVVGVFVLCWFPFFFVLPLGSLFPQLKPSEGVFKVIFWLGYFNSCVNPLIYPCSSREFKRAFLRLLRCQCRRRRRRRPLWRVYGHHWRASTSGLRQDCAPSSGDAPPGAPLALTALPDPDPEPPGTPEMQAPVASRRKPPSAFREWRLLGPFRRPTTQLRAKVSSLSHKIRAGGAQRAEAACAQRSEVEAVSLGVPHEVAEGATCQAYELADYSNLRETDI

D(2) dopamine receptor [3] = biological target: D(2) dopamine receptor (Rattus norvegicus, UniProt P61169)
[4] = biological target: T2, Amine oxidase [flavin-containing] A (Rattus norvegicus, UniProt P21396)
T2 sequence (P21396 whole entry): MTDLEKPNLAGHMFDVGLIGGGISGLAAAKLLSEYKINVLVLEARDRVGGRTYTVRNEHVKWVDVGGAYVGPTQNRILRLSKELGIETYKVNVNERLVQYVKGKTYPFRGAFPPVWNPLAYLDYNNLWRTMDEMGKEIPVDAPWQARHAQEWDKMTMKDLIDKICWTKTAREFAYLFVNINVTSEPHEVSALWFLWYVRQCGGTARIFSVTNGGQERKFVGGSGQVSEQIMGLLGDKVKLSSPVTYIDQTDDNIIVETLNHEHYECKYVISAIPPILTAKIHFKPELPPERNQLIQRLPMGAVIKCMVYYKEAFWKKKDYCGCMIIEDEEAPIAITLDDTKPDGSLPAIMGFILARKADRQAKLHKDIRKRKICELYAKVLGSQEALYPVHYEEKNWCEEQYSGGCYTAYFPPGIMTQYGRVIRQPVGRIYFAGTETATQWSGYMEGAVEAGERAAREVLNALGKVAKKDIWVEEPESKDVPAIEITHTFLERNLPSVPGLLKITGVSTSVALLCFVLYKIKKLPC

[5] = biological target: T3, Alpha-2C adrenergic receptor (Homo sapiens, UniProt P18825)
T3 sequence (P18825 whole entry): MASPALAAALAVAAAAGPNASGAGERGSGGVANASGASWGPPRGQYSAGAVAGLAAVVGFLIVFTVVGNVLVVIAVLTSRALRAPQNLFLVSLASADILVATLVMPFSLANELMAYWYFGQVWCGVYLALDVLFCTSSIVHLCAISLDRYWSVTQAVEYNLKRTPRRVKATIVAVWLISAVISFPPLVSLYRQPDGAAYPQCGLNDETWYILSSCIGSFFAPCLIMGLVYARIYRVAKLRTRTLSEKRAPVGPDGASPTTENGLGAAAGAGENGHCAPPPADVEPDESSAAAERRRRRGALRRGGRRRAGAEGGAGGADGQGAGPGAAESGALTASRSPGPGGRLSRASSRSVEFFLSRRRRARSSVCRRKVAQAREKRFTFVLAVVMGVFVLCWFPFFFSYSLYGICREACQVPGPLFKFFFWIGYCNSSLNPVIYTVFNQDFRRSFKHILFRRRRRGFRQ

[6] = biological target: T4, Alpha-1A adrenergic receptor (Homo sapiens, UniProt P35348)
T4 sequence (P35348 whole entry): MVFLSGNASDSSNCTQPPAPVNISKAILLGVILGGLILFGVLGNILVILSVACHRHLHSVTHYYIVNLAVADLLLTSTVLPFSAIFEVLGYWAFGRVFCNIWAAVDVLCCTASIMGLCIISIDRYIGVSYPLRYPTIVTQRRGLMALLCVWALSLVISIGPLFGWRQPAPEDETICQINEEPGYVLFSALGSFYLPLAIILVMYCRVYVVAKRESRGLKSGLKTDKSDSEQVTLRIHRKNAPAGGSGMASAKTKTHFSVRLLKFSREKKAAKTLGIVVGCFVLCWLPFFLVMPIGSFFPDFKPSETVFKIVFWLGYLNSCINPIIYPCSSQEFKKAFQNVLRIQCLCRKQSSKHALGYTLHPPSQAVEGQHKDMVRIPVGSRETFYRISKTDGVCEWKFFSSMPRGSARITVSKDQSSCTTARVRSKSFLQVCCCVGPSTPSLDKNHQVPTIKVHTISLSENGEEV

[7] = biological target: T5, Alpha-2C adrenergic receptor (Rattus norvegicus, UniProt P22086)
T5 sequence (P22086 whole entry): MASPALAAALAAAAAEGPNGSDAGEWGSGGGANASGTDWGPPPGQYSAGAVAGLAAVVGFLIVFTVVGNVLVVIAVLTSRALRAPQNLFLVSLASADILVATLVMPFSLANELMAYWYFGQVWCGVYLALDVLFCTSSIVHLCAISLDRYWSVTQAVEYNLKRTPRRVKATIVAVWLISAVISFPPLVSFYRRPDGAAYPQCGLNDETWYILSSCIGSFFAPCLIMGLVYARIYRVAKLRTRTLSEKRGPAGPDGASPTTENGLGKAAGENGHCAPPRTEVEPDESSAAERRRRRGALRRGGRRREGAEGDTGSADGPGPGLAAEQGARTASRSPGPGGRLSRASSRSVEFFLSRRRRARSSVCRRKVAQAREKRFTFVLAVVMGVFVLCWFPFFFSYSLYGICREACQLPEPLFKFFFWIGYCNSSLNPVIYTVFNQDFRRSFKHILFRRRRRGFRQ

[8] = biological target: T6, Amine oxidase [flavin-containing] B (Rattus norvegicus, UniProt P19643)
T6 sequence (P19643 whole entry): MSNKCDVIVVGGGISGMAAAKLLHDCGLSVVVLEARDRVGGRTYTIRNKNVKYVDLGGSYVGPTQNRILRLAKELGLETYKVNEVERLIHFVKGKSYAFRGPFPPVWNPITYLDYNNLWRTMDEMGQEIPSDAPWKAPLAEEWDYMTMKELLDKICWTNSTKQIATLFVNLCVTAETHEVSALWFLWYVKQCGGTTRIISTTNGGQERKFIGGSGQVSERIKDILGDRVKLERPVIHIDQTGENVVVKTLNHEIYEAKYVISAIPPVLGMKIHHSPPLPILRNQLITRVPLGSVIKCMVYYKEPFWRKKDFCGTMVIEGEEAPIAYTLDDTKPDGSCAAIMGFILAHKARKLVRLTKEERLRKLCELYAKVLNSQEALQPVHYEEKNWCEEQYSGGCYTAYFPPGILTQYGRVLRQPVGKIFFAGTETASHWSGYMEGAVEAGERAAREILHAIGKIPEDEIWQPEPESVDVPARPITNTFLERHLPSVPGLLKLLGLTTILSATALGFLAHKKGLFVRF

[9] = biological target: T7, Alpha-2A adrenergic receptor (Homo sapiens, UniProt P08913)
T7 sequence (P08913 whole entry): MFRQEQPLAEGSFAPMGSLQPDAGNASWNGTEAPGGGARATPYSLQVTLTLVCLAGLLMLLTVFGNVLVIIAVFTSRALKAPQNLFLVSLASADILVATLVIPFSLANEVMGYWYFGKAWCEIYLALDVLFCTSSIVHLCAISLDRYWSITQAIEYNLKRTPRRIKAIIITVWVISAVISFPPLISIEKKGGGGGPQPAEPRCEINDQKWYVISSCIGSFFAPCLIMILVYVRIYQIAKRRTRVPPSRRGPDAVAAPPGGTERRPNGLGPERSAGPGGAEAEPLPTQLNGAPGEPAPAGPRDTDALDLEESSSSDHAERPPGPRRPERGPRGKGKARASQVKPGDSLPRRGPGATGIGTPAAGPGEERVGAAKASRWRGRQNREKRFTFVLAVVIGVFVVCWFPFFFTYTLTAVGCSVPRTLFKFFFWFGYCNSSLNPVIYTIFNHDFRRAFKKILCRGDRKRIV

[10] = biological target: T8, Alpha-1B adrenergic receptor (Homo sapiens, UniProt P35368)
T8 sequence (P35368 whole entry): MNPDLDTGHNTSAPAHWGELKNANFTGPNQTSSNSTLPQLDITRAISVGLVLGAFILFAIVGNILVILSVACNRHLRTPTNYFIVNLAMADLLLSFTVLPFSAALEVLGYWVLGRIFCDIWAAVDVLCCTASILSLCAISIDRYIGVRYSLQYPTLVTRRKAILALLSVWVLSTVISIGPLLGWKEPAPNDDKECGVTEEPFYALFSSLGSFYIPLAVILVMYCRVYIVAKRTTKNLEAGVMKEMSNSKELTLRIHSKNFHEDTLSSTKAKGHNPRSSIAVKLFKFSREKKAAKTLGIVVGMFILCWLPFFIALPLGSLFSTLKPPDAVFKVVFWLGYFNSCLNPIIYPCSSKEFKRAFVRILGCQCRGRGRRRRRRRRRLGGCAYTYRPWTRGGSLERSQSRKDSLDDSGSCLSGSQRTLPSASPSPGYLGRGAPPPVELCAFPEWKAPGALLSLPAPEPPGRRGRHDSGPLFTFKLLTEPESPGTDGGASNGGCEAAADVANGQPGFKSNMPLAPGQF

[11] = biological target: Sodium-dependent noradrenaline transporter (Homo sapiens, UniProt P23975)
[12] = biological target: Norepinephrine transporter (Rattus norvegicus, UniProt Q9JIA2)
[13] = biological target: Beta-2 adrenergic receptor (Homo sapiens, UniProt P07550)
Chain of Beta-2 adrenergic receptor (P07550 whole entry): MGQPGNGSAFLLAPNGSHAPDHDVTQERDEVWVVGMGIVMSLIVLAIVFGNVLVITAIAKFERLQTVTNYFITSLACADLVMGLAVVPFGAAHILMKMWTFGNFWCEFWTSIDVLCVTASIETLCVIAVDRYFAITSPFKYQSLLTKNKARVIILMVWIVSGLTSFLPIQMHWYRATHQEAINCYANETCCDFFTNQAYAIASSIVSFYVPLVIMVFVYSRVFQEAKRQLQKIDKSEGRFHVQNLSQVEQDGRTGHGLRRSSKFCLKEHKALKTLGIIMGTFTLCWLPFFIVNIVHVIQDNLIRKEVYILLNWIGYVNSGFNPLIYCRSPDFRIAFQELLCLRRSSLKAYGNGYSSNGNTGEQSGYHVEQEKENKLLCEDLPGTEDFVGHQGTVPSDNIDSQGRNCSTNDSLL

Chain of Sodium-dependent noradrenaline transporter (P23975 whole entry): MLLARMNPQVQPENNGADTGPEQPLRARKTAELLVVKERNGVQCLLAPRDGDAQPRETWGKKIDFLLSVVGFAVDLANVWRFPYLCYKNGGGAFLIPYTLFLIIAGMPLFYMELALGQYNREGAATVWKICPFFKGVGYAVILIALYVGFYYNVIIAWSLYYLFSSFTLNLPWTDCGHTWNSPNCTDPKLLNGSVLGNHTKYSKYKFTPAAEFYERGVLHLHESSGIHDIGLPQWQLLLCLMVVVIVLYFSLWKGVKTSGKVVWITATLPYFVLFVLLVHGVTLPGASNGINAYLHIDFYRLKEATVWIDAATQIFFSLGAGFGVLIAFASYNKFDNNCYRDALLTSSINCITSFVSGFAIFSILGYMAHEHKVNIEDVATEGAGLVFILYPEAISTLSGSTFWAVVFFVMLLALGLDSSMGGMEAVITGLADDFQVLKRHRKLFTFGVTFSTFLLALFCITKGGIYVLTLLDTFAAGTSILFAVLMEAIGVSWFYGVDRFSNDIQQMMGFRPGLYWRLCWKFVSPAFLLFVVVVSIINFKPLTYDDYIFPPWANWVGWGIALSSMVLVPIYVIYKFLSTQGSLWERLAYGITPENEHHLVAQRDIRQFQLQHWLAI
Chain of D(2) dopamine receptor (Rattus norvegicus, UniProt P61169) (P61169 whole entry): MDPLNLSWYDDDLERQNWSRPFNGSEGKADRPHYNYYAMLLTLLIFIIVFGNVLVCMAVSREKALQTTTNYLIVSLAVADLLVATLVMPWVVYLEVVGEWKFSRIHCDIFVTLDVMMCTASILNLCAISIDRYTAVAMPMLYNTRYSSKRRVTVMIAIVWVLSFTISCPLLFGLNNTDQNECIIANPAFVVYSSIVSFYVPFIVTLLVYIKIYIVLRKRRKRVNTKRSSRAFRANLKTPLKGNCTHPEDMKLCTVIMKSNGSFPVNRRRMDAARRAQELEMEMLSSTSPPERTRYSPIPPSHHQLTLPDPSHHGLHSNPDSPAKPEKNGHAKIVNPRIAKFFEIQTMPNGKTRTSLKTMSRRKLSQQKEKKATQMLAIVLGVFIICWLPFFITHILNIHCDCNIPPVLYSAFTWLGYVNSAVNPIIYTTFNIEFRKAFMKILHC
Chain of D(2) dopamine receptor (Homo sapiens, UniProt P14416) (P14416 whole entry): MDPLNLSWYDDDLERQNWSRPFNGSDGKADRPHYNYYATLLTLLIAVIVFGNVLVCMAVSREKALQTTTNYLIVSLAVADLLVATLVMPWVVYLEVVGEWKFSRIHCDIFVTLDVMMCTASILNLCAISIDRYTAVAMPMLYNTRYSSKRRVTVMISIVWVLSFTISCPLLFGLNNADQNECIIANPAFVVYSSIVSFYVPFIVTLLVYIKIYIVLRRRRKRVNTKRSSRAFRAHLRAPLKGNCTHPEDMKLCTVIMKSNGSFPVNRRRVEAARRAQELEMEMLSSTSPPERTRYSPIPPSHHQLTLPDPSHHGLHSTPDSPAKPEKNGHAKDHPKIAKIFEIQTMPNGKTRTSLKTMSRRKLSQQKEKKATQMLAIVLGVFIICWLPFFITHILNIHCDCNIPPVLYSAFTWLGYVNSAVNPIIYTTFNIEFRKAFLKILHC

Ki (D(2) dopamine receptor [1]): 132 nM | Ki [2]: 219 nM | Ki (D(2) dopamine receptor [3]): 182 nM | Ki [4]: > 10000 nM | Ki [5]: 69.2 nM | Ki [6]: 813 nM | Ki [7]: 437 nM | Ki [8]: > 10000 nM | Ki [9]: 89.1 nM | Ki [10]: 6170 nM | Ki [11]: > 10000 nM | Ki [12]: > 10000 nM | Ki [13]: > 10000 nM
SMILES: c1cnc(N2CCN(Cc3ccc4c(c3)OCO4)CC2)nc1 [NSC_4850]
